The values that follow are results of earlier work, collected in article PMC9487510, “A Novel Oral GyrB/ParE Dual Binding Inhibitor Effective against Multidrug-Resistant Neisseria gonorrhoeae and Other High-Threat Pathogens” (Antimicrobial Agents and Chemotherapy, 2022).

SMILES strings stand for the structures. Converted amounts (≈) assume the structure as drawn.

For the series, the system named is E. coli. More on the design: method as in PMID 28483959, PMID 31315953. The settings on record: cited from earlier work.

By MIC is commonly meant the lowest concentration that inhibits growth of the organism. Regarding `C[C@@H]1CN2c3c(cc4c(N5C(=O)OC[C@@H]5C)noc4c3F)CC3(C(=O)NC(=O)NC3=O)[C@H]2[C@H](C)O1` [zoliflodacin], the MIC is 4 µg/mL (≈ 8.21 µM).
